Measurements reported in US20250333424A1, “ANTIVIRAL COMPOUNDS” (Gilead Sciences, Inc., priority 2024, published 2025).

System: monocytic THP1 cells infected with HIV VSV-G pseudotyped GFP-NEF reporter virus
Test: cells
Format: cell-based
Details: Human immunodeficiency virus 1, THP-1, 24 h

SMILES	EC50 [µM]
Cc1cc(/C=C/C#N)cc(C)c1Oc1nc(NC23CC(C#N)(C2)C3)nc2nc(-c3cnoc3)[nH]c12 [Compound 71, (E)-3-((6-(4-(2-cyanovinyl)-2,6-dimethylphenoxy)-8-(isoxazol-4-yl)-7H-purin-2-yl)amino)bicyclo[1.1.1]pentane-1-carbonitrile]	0.274
Cc1cc(/C=C/C#N)cc(C)c1Oc1nc(NC23CC(C#N)(C2)C3)nc2nc(-c3cncnc3)[nH]c12 [Compound 72, (E)-3-((6-(4-(2-cyanovinyl)-2,6-dimethylphenoxy)-8-(pyrimidin-5-yl)-7H-purin-2-yl)amino)bicyclo[1.1.1]pentane-1-carbonitrile]	0.308
Cc1cc(/C=C/C#N)cc(C)c1Oc1nc(NC23CC(C#N)(C2)C3)nc2nc(-c3ccno3)[nH]c12 [Compound 73, (E)-3-((6-(4-(2-cyanovinyl)-2,6-dimethylphenoxy)-8-(isoxazol-5-yl)-7H-purin-2-yl)amino)bicyclo[1.1.1]pentane-1-carbonitrile]	0.285
Cc1cc(/C=C/C#N)cc(C)c1Oc1nc(NC23CC(C#N)(C2)C3)nc2nn(-c3ccccc3)cc12 [Compound 74, (E)-3-((4-(4-(2-cyanovinyl)-2,6-dimethylphenoxy)-2-phenyl-2H-pyrazolo[3,4-d]pyrimidin-6-yl)amino)bicyclo[1.1.1]pentane-1-carbonitrile]	0.162
Cc1cc(/C=C/C#N)cc(C)c1Oc1nc(NC23CC(C#N)(C2)C3)nc2c1CCC2(F)F [Compound 79, (E)-3-((4-(4-(2-cyanovinyl)-2,6-dimethylphenoxy)-7,7-difluoro-6,7-dihydro-5H-cyclopenta[d]pyrimidin-2-yl)amino)bicyclo[1.1.1]pentane-1-carbonitrile]	0.0332
Cc1cc(/C=C/C#N)cc(C)c1Oc1nc(NC23CC(C#N)(C2)C3)nc2nnn(C)c12 [Compound 81, (E)-3-((7-(4-(2-cyanovinyl)-2,6-dimethylphenoxy)-1-methyl-11H-[1,2,3]triazolo[4,5-d]pyrimidin-5-yl)amino)bicyclo[1.1.1]pentane-1-carbonitrile]	0.0356
Cc1cc(/C=C/C#N)cc(C)c1Oc1nc(NC23CC(C#N)(C2)C3)nc2nn(C)nc12 [Compound 82, (E)-3-((7-(4-(2-cyanovinyl)-2,6-dimethylphenoxy)-2-methyl-2H-[1,2,3]triazolo[4,5-d]pyrimidin-5-yl)amino)bicyclo[1.1.1]pentane-1-carbonitrile]	0.079
Cc1cc(/C=C/C#N)cc(C)c1Oc1nc(NC23CC(C#N)(C2)C3)nc2nn(CC(F)F)c(C)c12 [Compound 83, (E)-3-((4-(4-(2-cyanovinyl)-2,6-dimethylphenoxy)-2-(2,2-difluoroethyl)-3-methyl-2H-pyrazolo[3,4-d]pyrimidin-6-yl)amino)bicyclo[11.1.1]pentane-1-carbonitrile]	0.162
Cc1cc(/C=C/C#N)cc(C)c1Oc1nc(NC23CC(C#N)(C2)C3)nc2nn(CC(F)(F)F)c(C)c12 [Compound 84, (E)-3-((4-(4-(2-cyanovinyl)-2,6-dimethylphenoxy)-3-methyl-2-(2,2,2-trifluoroethyl)-2H-pyrazolo[3,4-d]pyrimidin-6-yl)amino)bicyclo[1.1.1]pentane-1-carbonitrile]	0.37
Cc1cc(/C=C/C#N)cc(C)c1Oc1nc(NC23CC(C#N)(C2)C3)nc2nn(C)c(C)c12 [Compound 86, (E)-3-((4-(4-(2-cyanovinyl)-2,6-dimethylphenoxy)-2,3-dimethyl-2H-pyrazolo[3,4-d]pyrimidin-6-yl)amino)bicyclo[1.1.1]pentane-1-carbonitrile]	0.0183
Cc1cc(/C=C/C#N)cc(C)c1Oc1nc(NC23CC(C#N)(C2)C3)nc2nn(C)c(I)c12 [Compound 87, (E)-3-((4-(4-(2-cyanovinyl)-2,6-dimethylphenoxy)-3-iodo-2-methyl-2H-pyrazolo[3,4-d]pyrimidin-6-yl)amino)bicyclo[1.1.1]pentane-1-carbonitrile]	0.0251
C=Cc1c2c(Oc3c(C)cc(/C=C/C#N)cc3C)nc(NC34CC(C#N)(C3)C4)nc2nn1C [Compound 88, (E)-3-((4-(4-(2-cyanovinyl)-2,6-dimethylphenoxy)-2-methyl-3-vinyl-2H-pyrazolo[3,4-d]pyrimidin-6-yl)amino)bicyclo[1.1.1]pentane-1-carbonitrile]	0.0234
Cc1cc(/C=C/C#N)cc(C)c1Oc1nc(NC23CC(C#N)(C2)C3)nc2[nH]nc(Br)c12 [Compound 90, (E)-3-((3-bromo-4-(4-(2-cyanovinyl)-2,6-dimethylphenoxy)-1H-pyrazolo[3,4-d]pyrimidin-6-yl)amino)bicyclo[1.1.1]pentane-1-carbonitrile]	0.0254
Cc1cc(/C=C/C#N)cc(C)c1Oc1nc(NC23CC(C#N)(C2)C3)nc2[nH]nc(C(F)F)c12 [Compound 91, (E)-3-((4-(4-(2-cyanovinyl)-2,6-dimethylphenoxy)-3-(difluoromethyl)-1H-pyrazolo[3,4-d]pyrimidin-6-yl)amino)bicyclo[1.1.1]pentane-1-carbonitrile]	0.0423
Cc1cc(/C=C/C#N)cc(C)c1Oc1nc(NC23CC(C#N)(C2)C3)nc2nn(C)c(C(F)F)c12 [Compound 92, (E)-3-((4-(4-(2-cyanovinyl)-2,6-dimethylphenoxy)-3-(difluoromethyl)-2-methyl-2H-pyrazolo[3,4-d]pyrimidin-6-yl)amino)bicyclo[1.1.1]pentane-1-carbonitrile]	0.0263
Cc1cc(/C=C/C#N)cc(C)c1Oc1nc(NC23CC(C#N)(C2)C3)nc2c1c(C(F)F)nn2C [Compound 93, (E)-3-((4-(4-(2-cyanovinyl)-2,6-dimethylphenoxy)-3-(difluoromethyl)-1-methyl-1H-pyrazolo[3,4-d]pyrimidin-6-yl)amino)bicyclo[1.1.1]pentane-1-carbonitrile]	0.0377
Cc1cc(/C=C/C#N)cc(C)c1Oc1nc(NC23CC(C#N)(C2)C3)nc2[nH]nc(Cl)c12 [Compound 94, (E)-3-((3-chloro-4-(4-(2-cyanovinyl)-2,6-dimethylphenoxy)-1H-pyrazolo[3,4-d]pyrimidin-6-yl)amino)bicyclo[1.1.1]pentane-1-carbonitrile]	0.0725
CNC(=O)Cn1nc2nc(NC34CC(C#N)(C3)C4)nc(Oc3c(C)cc(/C=C/C#N)cc3C)c2c1C [Compound 98, (E)-2-(6-((3-cyanobicyclo[1.1.1]pentan-1-yl)amino)-4-(4-(2-cyanovinyl)-2,6-dimethylphenoxy)-3-methyl-2H-214-pyrazolo[3,4-d]pyrimidin-2-yl)-N-methylacetamide]	0.0943
CNC(=O)Cn1nc(C)c2c(Oc3c(C)cc(/C=C/C#N)cc3C)nc(NC34CC(C#N)(C3)C4)nc21 [Compound 99, (E)-2-(6-((3-cyanobicyclo[1.1.1]pentan-1-yl)amino)-4-(4-(2-cyanovinyl)-2,6-dimethylphenoxy)-3-methyl-1H-pyrazolo[3,4-d]pyrimidin-1-yl)-N-methylacetamide]	0.0371
Cc1cc(/C=C/C#N)cc(C)c1Oc1nc(NC23CC(C#N)(C2)C3)nc2c1c(C)nn2CC#N [Compound 100, (E)-3-((1-(cyanomethyl)-4-(4-(2-cyanovinyl)-2,6-dimethylphenoxy)-3-methyl-11H-pyrazolo[3,4-d]pyrimidin-6-yl)amino)bicyclo[1.1.1]pentane-1-carbonitrile]	0.0361
CNC(=O)CCn1nc(C)c2c(Oc3c(C)cc(/C=C/C#N)cc3C)nc(NC34CC(C#N)(C3)C4)nc21 [Compound 101, (E)-3-(6-((3-cyanobicyclo[1.1.1]pentan-1-yl)amino)-4-(4-(2-cyanovinyl)-2,6-dimethylphenoxy)-3-methyl-1H-pyrazolo[3,4-d]pyrimidin-1-yl)-N-methylpropanamide]	0.0596
Cc1cc(/C=C/C#N)cc(C)c1Oc1nc(NC23CC(C#N)(C2)C3)nc2nn(CCC(F)F)c(C)c12 [Compound 102, (E)-3-((4-(4-(2-cyanovinyl)-2,6-dimethylphenoxy)-2-(3,3-difluoropropyl)-3-methyl-2H-pyrazolo[3,4-d]pyrimidin-6-yl)amino)bicyclo[1.1.1]pentane-1-carbonitrile]	0.0224
Cc1cc(/C=C/C#N)cc(C)c1Oc1nc(NC23CC(C#N)(C2)C3)nc2c1c(C)nn2CCC(F)F [Compound 103, (E)-3-((4-(4-(2-cyanovinyl)-2,6-dimethylphenoxy)-1-(3,3-difluoropropyl)-3-methyl-1H-pyrazolo[3,4-d]pyrimidin-6-yl)amino)bicyclo[1.1.1]pentane-1-carbonitrile]	0.221
Cc1cc(/C=C/C#N)cc(C)c1Oc1nc(NC23CC(C#N)(C2)C3)nc2[nH]nc(C3CC3)c12 [Compound 104, (E)-3-((4-(4-(2-cyanovinyl)-2,6-dimethylphenoxy)-3-cyclopropyl-1H-pyrazolo[3,4-d]pyrimidin-6-yl)amino)bicyclo[1.1.1]pentane-1-carbonitrile]	0.141
C=Cc1n[nH]c2nc(NC34CC(C#N)(C3)C4)nc(Oc3c(C)cc(/C=C/C#N)cc3C)c12 [Compound 105, (E)-3-((4-(4-(2-cyanovinyl)-2,6-dimethylphenoxy)-3-vinyl-1H-pyrazolo[3,4-d]pyrimidin-6-yl)amino)bicyclo[1.1.1]pentane-1-carbonitrile]	0.182
Cc1cc(/C=C/C#N)cc(C)c1Oc1nc(NC23CC(C#N)(C2)C3)nc2[nH]nc(-c3ccn(C)n3)c12 [Compound 107, (E)-3-((4-(4-(2-cyanovinyl)-2,6-dimethylphenoxy)-3-(1-methyl-1H-pyrazol-3-yl)-1H-pyrazolo[3,4-d]pyrimidin-6-yl)amino)bicyclo[1.1.1]pentane-1-carbonitrile]	0.443
Cc1cc(/C=C/C#N)cc(C)c1Oc1nc(NC23CC(C#N)(C2)C3)nc2cn(C(C)C)nc12 [Compound 108]	0.611
COc1n[nH]c2nc(NC34CC(C#N)(C3)C4)nc(Oc3c(C)cc(/C=C/C#N)cc3C)c12 [Compound 109, (E)-3-((4-(4-(2-cyanovinyl)-2,6-dimethylphenoxy)-3-methoxy-1H-pyrazolo[3,4-d]pyrimidin-6-yl)amino)bicyclo[1.1.1]pentane-1-carbonitrile]	0.2
Cc1cc(/C=C/C#N)cc(C)c1Oc1nc(NC23CC(C#N)(C2)C3)nc2[nH]nc(O)c12 [Compound 110, (E)-3-((4-(4-(2-cyanovinyl)-2,6-dimethylphenoxy)-3-hydroxy-1H-pyrazolo[3,4-d]pyrimidin-6-yl)amino)bicyclo[1.1.1]pentane-1-carbonitrile]	> 1
